Test results as given in patent publication US20260048064A1, “AMORPHOUS SOLID DISPERSIONS COMPRISING NAPORAFENIB” (Novartis AG, priority 2022, published 2026).
≈ marks a conversion by molar mass, not a printed value. Where a name gives a salt, the structure may show the parent alone.

How the values were obtained:
Format in all cases: physicochemical
[1] = Solubility at 25° C. in SGF, FaSSIF, FeSSIF (Table 1A)
Method: (§1) Several physical forms of Compound A were analyzed: the free base, tartrate salt, and tosylate salt.

[2] = Solubility at various pH and in biorelevant media (Table 1B)
From the text: Compound A has very limited solubility in all pHs.

[3] = Light stability, 1.2 MLux h (Table 1A)
Method: as §1

[4] = Hygroscopicity (Table 1A)
Method: as §1

[5] = Stability in aqueous solutions (Table 1A)
Method: as §1

[6] = Bulk stability at 80° C./75% RH, 1 week (Table 1A)
Method: as §1

[7] = Polymorphism (Table 1A)
Method: as §1

[8] = Photostability under light stress (Table 1C); settings: RT, light dose 1.2 Lux·h*10^6
From the text: The photostability of crystalline hydrate and crystalline tosylate forms of Compound A under photo, or light stress is provided in Table 1C.

[9] = Stability in solution/suspension at pH 1, 4.5, 7.4 under heat (Table 1E); settings: 5 days
[10] = Bulk solid stability under thermal stress (Table 1D); settings: 5 days

Structure (SMILES): Cc1ccc(NC(=O)c2ccnc(C(F)(F)F)c2)cc1-c1cc(OCCO)nc(N2CCOCC2)c1 [Compound A (free base), N-(3-(2-(2-hydroxyethoxy)-6-morpholinopyridin-4-yl)-4-methylphenyl)-2-(trifluoromethyl)isonicotinamide]
- Solubility at 25° C. ([1]; FaSSIF): 1.4 µg/mL (≈ 2.79 µM)
- pH final of solubility test ([1]; FaSSIF): 6.91
- pH final of solubility test ([1]; FeSSIF): 6.08
- Solubility ([1]; FeSSIF, 25 °C, thermodynamic from solid): 137 µg/mL (≈ 273 µM)
- Solubility at 25° C. ([1]; SGF): 2.1 µg/mL (≈ 4.18 µM)
- pH final of solubility test ([1]; SGF): 2.02
- Solubility ([2]; FaSSIF V2): 35 µg/mL (≈ 69.7 µM)
- pH final of solubility test ([2]; FaSSIF V2): 6.51
- Solubility ([2]; FeSSIF V2): 576 µg/mL (≈ 1150 µM)
- pH final of solubility test ([2]; FeSSIF V2): 5.82
- Solubility ([2]; SGF pH 2.0): 699 µg/mL (≈ 1390 µM)
- pH final of solubility test ([2]; SGF pH 2.0): 1.86
- Solubility ([2]; Water): 2 µg/mL (≈ 3.98 µM)
- pH final of solubility test ([2]; Water): 7.33
- Solubility ([2]; pH 1): 400 µg/mL (≈ 796 µM)
- pH final of solubility test ([2]; pH 1): 1.07
- Solubility ([2]; pH 2): 140 µg/mL (≈ 279 µM)
- pH final of solubility test ([2]; pH 2): 1.96
- pH final of solubility test ([2]; pH 4.5): 4.56
- Solubility ([2]; pH 4.5, aqueous buffer, thermodynamic from solid, pH 4.5, read-out: Solubility): 2 µg/mL (≈ 3.98 µM)
- pH final of solubility test ([2]; pH 7.4): 7.33
- Solubility ([2]; pH 7.4, aqueous buffer, thermodynamic from solid, pH 7.4, read-out: Solubility): 1 µg/mL (≈ 1.99 µM)
- Light stability (1.2 MLux h) [3]: Slight degradation
- Hygroscopicity [4]: Low
- Stability in aqueous solutions ([5]; pH 1.2 and pH 10.0): Significant degradation
- Stability in aqueous solutions ([5]; pH 2.9 to 6.8): Relatively stable at pH
- Bulk stability (degradation) [6]: week), slight
- Polymorphism [7]: Yes

Structure (SMILES): Cc1ccc(NC(=O)c2ccnc(C(F)(F)F)c2)cc1-c1cc(OCCO)nc(N2CCOCC2)c1 [Compound A (hydrate), N-(3-(2-(2-hydroxyethoxy)-6-morpholinopyridin-4-yl)-4-methylphenyl)-2-(trifluoromethyl)isonicotinamide]
- Appearance/XRPD/DSC ([8]; Bulk): No change
- Degradation Products [%] (HPLC) ([8]; Bulk): <1.0%
- Degradation Products [%] (HPLC) ([8]; Ethanol): 18%
- Solubility ([2]; FaSSIF V2): 4 µg/mL
- pH final of solubility test ([2]; FaSSIF V2): 6.44
- Solubility ([2]; FeSSIF V2): 47 µg/mL
- pH final of solubility test ([2]; FeSSIF V2): 5.6
- Solubility ([2]; SGF pH 2.0): 25 µg/mL
- pH final of solubility test ([2]; SGF pH 2.0): 2.19
- Solubility ([2]; Water): 1 µg/mL
- pH final of solubility test ([2]; Water): 5.99
- Solubility ([2]; pH 1): 170 µg/mL
- pH final of solubility test ([2]; pH 1): 1.23
- Solubility ([2]; pH 4.5): 1 µg/mL
- pH final of solubility test ([2]; pH 4.5): 4.0
- Solubility ([2]; pH 7.0): 0.8 µg/mL
- pH final of solubility test ([2]; pH 7.0): 7.0

Structure (SMILES): Cc1ccc(NC(=O)c2ccnc(C(F)(F)F)c2)cc1-c1cc(OCCO)nc(N2CCOCC2)c1 [Compound A (tartrate salt), N-(3-(2-(2-hydroxyethoxy)-6-morpholinopyridin-4-yl)-4-methylphenyl)-2-(trifluoromethyl)isonicotinamide]
- Solubility at 25° C. ([1]; FaSSIF): 0.6 µg/mL
- pH final of solubility test ([1]; FaSSIF): 3.54
- Solubility at 25° C. ([1]; FeSSIF): 109.2 µg/mL
- pH final of solubility test ([1]; FeSSIF): 4.93
- Solubility at 25° C. ([1]; SGF): 53.5 µg/mL
- pH final of solubility test ([1]; SGF): 1.89
- Light stability (1.2 MLux h) [3]: Significant degradation
- Hygroscopicity [4]: High
- Stability in aqueous solutions ([5]; pH 1.2 and pH 10.0): Significant degradation
- Stability in aqueous solutions ([5]; pH 2.9 to 6.8): Relatively stable at pH
- Bulk stability (degradation) [6]: week), significant
- Polymorphism [7]: Potential issue

Structure (SMILES): Cc1ccc(NC(=O)c2ccnc(C(F)(F)F)c2)cc1-c1cc(OCCO)nc(N2CCOCC2)c1 [Compound A (tosylate salt), N-(3-(2-(2-hydroxyethoxy)-6-morpholinopyridin-4-yl)-4-methylphenyl)-2-(trifluoromethyl)isonicotinamide]
- Solubility at 25° C. ([1]; FaSSIF): 1.1 µg/mL
- pH final of solubility test ([1]; FaSSIF): 6.66
- Solubility at 25° C. ([1]; FeSSIF): 115.8 µg/mL
- pH final of solubility test ([1]; FeSSIF): 5.58
- Solubility at 25° C. ([1]; SGF): 10 µg/mL
- pH final of solubility test ([1]; SGF): 1.75
- Appearance/XRPD/DSC ([8]; Bulk): No change
- Degradation Products [%] (HPLC) ([8]; Bulk): <1.0%
- Degradation Products [%] (HPLC) ([8]; Ethanol): 97%
- Solubility ([2]; FaSSIF V2): 16 µg/mL
- pH final of solubility test ([2]; FaSSIF V2): 6.07
- Solubility ([2]; FeSSIF V2): 51 µg/mL
- pH final of solubility test ([2]; FeSSIF V2): 5.41
- Solubility ([2]; SGF pH 2.0): 29 µg/mL
- pH final of solubility test ([2]; SGF pH 2.0): 2.02
- Solubility ([2]; Water): 5140 µg/mL
- pH final of solubility test ([2]; Water): 2.71
- Solubility ([2]; pH 1): 106 µg/mL
- pH final of solubility test ([2]; pH 1): 1.23
- Solubility ([2]; pH 4.5): 2 µg/mL
- pH final of solubility test ([2]; pH 4.5): 3.85
- Solubility ([2]; pH 7.0): 2 µg/mL
- pH final of solubility test ([2]; pH 7.0): 6.83
- Parent remaining [%] (HPLC) ([9]; pH 1, 50 ° C.): 23%
- Parent remaining [%] (HPLC) ([9]; pH 1, 80 ° C.): 0.2%
- Parent remaining [%] (HPLC) ([9]; pH 1, RT): 97%
- Parent remaining [%] (HPLC) ([9]; pH 4.5, 50 ° C.): >99%
- Parent remaining [%] (HPLC) ([9]; pH 4.5, 80 ° C.): 98.6%
- Parent remaining [%] (HPLC) ([9]; pH 4.5, RT): >99%
- Parent remaining [%] (HPLC) ([9]; pH 7.4, 50 ° C.): 97%
- Parent remaining [%] (HPLC) ([9]; pH 7.4, 80 ° C.): 74%
- Parent remaining [%] (HPLC) ([9]; pH 7.4, RT): >99%
- Light stability (1.2 MLux h) [3]: No degradation
- Hygroscopicity [4]: Low
- Appearance/XRPD/DSC ([10]; 50 ° C.): No change
- Parent remaining [%] (HPLC) ([10]; 50 ° C.): >99%
- Appearance/XRPD/DSC ([10]; 80 ° C.): No change
- Parent remaining [%] (HPLC) ([10]; 80 ° C.): >99%
- Appearance/XRPD/DSC ([10]; RT): No change
- Parent remaining [%] (HPLC) ([10]; RT): >99%
- Bulk stability (degradation) [6]: 75% RH (1 week), no
- Bulk stability (physical) [6]: Physically unstable at 80° C./
- Polymorphism [7]: No issue encountered
